Measurements from EP4227307A1 (Genzyme Corporation, priority 2022, dated 2023).
pIC50: −log10 of the molar value. Structures can show the parent of a compound that is named as a salt.

target: T1, human recombinant 6His-Nterm SHP2 full-length (Thr2-Arg593) (Homo sapiens, UniProt Q06124); experiment: SHP2 Phosphatase Assay (DiFMUP fluorescence); assay type: biochemical; conditions: SHP2 0.2 nM pre-incubated with 100 nM bi-phosphorylated activating peptide; compound 1000-0.05 nM, 30 min pre-incubation; DiFMUP 20 µM, 45 min, room temperature; 10-concentration dose-response
T1 construct: 6His-Nterm SHP2 full-length (Thr2-Arg593, R&D system); 6His (N); purchased R&D system
T1 sequence (Q06124 2-593): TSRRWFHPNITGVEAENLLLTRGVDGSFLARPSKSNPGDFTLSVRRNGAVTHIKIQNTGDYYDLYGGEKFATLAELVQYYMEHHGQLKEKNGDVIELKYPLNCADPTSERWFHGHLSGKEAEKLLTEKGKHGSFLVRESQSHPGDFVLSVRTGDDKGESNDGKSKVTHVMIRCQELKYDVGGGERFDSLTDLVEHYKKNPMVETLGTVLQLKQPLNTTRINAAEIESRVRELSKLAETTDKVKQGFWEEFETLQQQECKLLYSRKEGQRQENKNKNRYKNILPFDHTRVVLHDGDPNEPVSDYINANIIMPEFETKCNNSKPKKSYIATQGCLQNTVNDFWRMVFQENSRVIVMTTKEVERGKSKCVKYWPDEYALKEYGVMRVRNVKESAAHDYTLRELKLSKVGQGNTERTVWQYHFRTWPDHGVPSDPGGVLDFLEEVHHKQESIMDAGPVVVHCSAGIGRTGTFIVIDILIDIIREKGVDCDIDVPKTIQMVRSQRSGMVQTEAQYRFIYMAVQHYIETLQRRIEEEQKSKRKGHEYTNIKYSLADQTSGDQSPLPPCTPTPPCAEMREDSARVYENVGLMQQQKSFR
Protocol: Inhibition of SHP2 phosphatase activity was evaluated using human recombinant 6His-Nterm SHP2 full-length (Thr2-Arg593, R&D system), NsCs bi-phosphorylated activating peptide (NH2-LN(pY)AQLWHA(PEG8)LTI(pY)ATIRRF-Amide.acetate, Thermofischer Scientific) and DiFMUP as surrogate phosphatase substrate (Molecular Probes). All reactions were performed at room temperature in 384-well black polystyrene non-binding plate (Corning) with the assay buffer (50 mM HEPES-NaOH pH 7.2, 100 mM NaCl, 0.5 mM EDTA, 0.001% Brij35 including 0.02% BSA and 1 mM DTT added extemporaneously). SHP2 was pre-incubated at least 10 min with the activating peptide (0.2 nM and 100 nM, respectively). 10 µL of this mixture was added to the assay plate, that already contained 15 nL of the compound (1000-0.05 nM). After 30 min pre-incubation, the enzymatic reaction was initiated by the addition of 5 µL DiFMUP in assay buffer without BSA (20 µM). The reaction was stopped by the addition of 15 µL sodium pervanadate solution (100 µM) after 45 min incubation. The fluorescence signal was measured at excitation and emission wavelengths of 350 nm and 450 nm, respectively, using a Pherastar instrument (BMG-LabTech). Percentage of inhibition […] were calculated from the fluorescence signal at 450 nm of the positive and negative control using the following formula: I% = ((signal Max−signal Sample)/(signal Max−signal Min control)) × 100 [formula]
Positive control (Max): corresponds to the maximum fluorescence signal obtained in the presence of 15 nL DMSO replacing the inhibitor in the pre-incubation step.
Negative control (Min): corresponds to the minimum signal obtained in the presence of 1 µM of RMC-4550, the structure of which is shown below: [drawing 464]
The IC50 were then calculated from a dose-response curve of 10 concentrations of tested compound using the 4-parameter logistic model: I% = A + (C)/(1 + exp(−B×log(X)−M)) [formula]
The parameters A and (A+C) are the lower and upper limits, B is the slope of the curve at the inflexion point, M parameter is the logarithm of the abscissa at the inflexion point, and X is the concentration of compound.

Compound	pIC50
Cc1nocc1-c1c(C)nc(N2CCC3(CC2)Cc2ccccc2[C@H]3N)c2ccnn12 [Compound 21, (1S)-1'-[6-methyl-7-(3-methylisoxazol-4-yl)pyrazolo[1,5-a]pyrazin-4-yl]spiro[indane-2,4'-piperidine]-1-amine]	7.24
COc1cnc2c(c1)[C@@H](N)C1(CCN(c3nc(C)c(-c4cccc(F)c4F)n4nccc34)CC1)C2 [Compound 24, (5S)-1'-[7-(2,3-difluorophenyl)-6-methyl-pyrazolo[1,5-a]pyrazin-4-yl]-3-methoxy-spiro[5,7-dihydrocyclopenta[b]pyridine-6,4'-piperidine]-5-amine]	7.96
Cc1nccc(-c2c(C)nc(N3CCC4(CC3)Cc3ccccc3[C@H]4N)c3ccnn23)c1Cl [Compound 25, (S)-1'-(7-(3-chloro-2-methylpyridin-4-yl)-6-methylpyrazolo[1,5-a]pyrazin-4-yl)-1,3-dihydrospiro[indene-2,4'-piperidin]-1-amine hydrochloride]	8.22
Cc1nc(N2CCC3(CC2)Cc2ncccc2[C@H]3N)c2ccnn2c1-c1ccc2nccnc2c1 [Compound 27, (5S)-1'-(6-methyl-7-quinoxalin-6-yl-pyrazolo[1,5-a]pyrazin-4-yl)spiro[5,7-dihydrocyclopenta[b]pyridine-6,4'-piperidine]-5-amine hydrochloride]	7.80
Cc1nc(N2CCC3(CC2)Cc2ncccc2[C@H]3N)c2ccnn2c1-c1ccnn1C [Compound 29, (5S)-1'-[6-methyl-7-(2-methylpyrazol-3-yl)pyrazolo[1,5-a]pyrazin-4-yl]spiro[5,7-dihydrocyclopenta[b]pyridine-6,4'-piperidine]-5-amine hydrochloride]	7.42
Cc1nc(N2CCC3(CC2)Cc2ncccc2[C@H]3N)c2ccnn2c1-c1ccc2ncccc2c1F [Compound 30, (5S)-1'-[7-(5-fluoro-6-quinolyl)-6-methyl-pyrazolo [1 ,5-a]pyrazin-4-yl]spiro[5,7-dihydrocyclopenta[b]pyridine-6,4'-piperidine] -5-amine formate]	7.77
COc1ccc(F)c(-c2c(C)nc(N3CCC4(CC3)Cc3ncccc3[C@H]4N)c3ccnn23)c1 [Compound 31, (5S)-1'-[7-(2-fluoro-5-methoxy-phenyl)-6-methyl-pyrazolo[1,5-a]pyrazin-4-yl]spiro[5,7-dihydrocyclopenta[b]pyridine-6,4'-piperidine]-5-amine]	7.89
COc1cccc(-c2c(C)nc(N3CCC4(CC3)Cc3ncccc3[C@H]4N)c3ccnn23)c1 [Compound 32, (5S)-1'-[7-(3-methoxyphenyl)-6-methyl-pyrazolo[1,5-a]pyrazin-4-yl]spiro[5,7-dihydrocyclopenta[b]pyridine-6,4'-piperidine]-5-amine]	8.22
Cc1nc(N2CCC3(CC2)Cc2ncccc2[C@H]3N)c2ccnn2c1-c1ccc2c(c1F)OCCO2 [Compound 34, (5S)-1'-[7-(5-fluoro-2,3-dihydro-1,4-benzodioxin-6-yl)-6-methyl-pyrazolo[1,5-a]pyrazin-4-yl]spiro[5,7-dihydrocyclopenta[b]pyridine-6,4'-piperidine]-5-amine]	8.52
Cc1nc(N2CCC3(CC2)Cc2c(ccnc2CO)[C@H]3N)c2ccnn2c1-c1ccccc1F [Compound 35, [(5S)-5-amino-1'-[7-(2-fluorophenyl)-6-methyl-pyrazolo[1,5-a]pyrazin-4-yl]spiro[5,7-dihydrocyclopenta[c]pyridine-6,4'-piperidine]-1-yl]methanol]	8.10
Cc1nc(N2CCC3(CC2)Cc2ncccc2[C@H]3N)c2cc(CO)nn2c1-c1cccc(F)c1F [Compound 37, [4-[(5S)-5-aminospiro[5,7-dihydrocyclopenta[b]pyridine-6,4'-piperidine]-1'-yl]-7-(2,3-difluorophenyl)-6-methyl-pyrazolo[1,5-a]pyrazin-2-yl]methanol]	8.05
Cc1nc(N2CCC3(CC2)Cc2ncccc2[C@H]3N)c2ccnn2c1-c1sccc1Cl [Compound 38, (5S)-1'-[7-(3-chloro-2-thienyl)-6-methyl-pyrazolo[1,5-a]pyrazin-4-yl]spiro[5,7-dihydrocyclopenta[b]pyridine-6,4'-piperidine]-5-amine]	7.92
Cc1nc(N2CCC3(CC2)Cc2ncccc2[C@H]3N)c2ccnn2c1-c1ccccc1 [Compound 39, (5S)-1'-(6-methyl-7-phenyl-pyrazolo[1,5-a]pyrazin-4-yl)spiro[5,7-dihydrocyclopenta[b]pyridine-6,4'-piperidine]-5-amine]	8.30
Cc1nc(N2CCC3(CC2)Cc2ncccc2[C@H]3N)c2ccnn2c1-c1ccnc(C2CC2)c1Cl [Compound 40, (5S)-1'-[7-(3-chloro-2-cyclopropyl-4-pyridyl)-6-methyl-pyrazolo[1,5-a]pyrazin-4-yl]spiro[5,7-dihydrocyclopenta[b]pyridine-6,4'-piperidine]-5-amine]	8.00

Further lines, results first:

pIC50	Compound
7.96	Cc1nc(N2CCC3(CC2)Cc2ncccc2[C@H]3N)c2ccnn2c1-c1ccccc1Cl [Compound 22, (5S)-1'-[7-(2-chlorophenyl)-6-methyl-pyrazolo[1,5-a]pyrazin-4-yl]spiro[5,7-dihydrocyclopenta[b]pyridine-6,4'-piperidine]-5-amine]
8.00	COc1cnc2c(c1)[C@@H](N)C1(CCN(c3nc(C)c(-c4ccnc(C)c4Cl)n4nccc34)CC1)C2 [Compound 23, (5S)-1'-[7-(3-chloro-2-methyl-4-pyridyl)-6-methyl-pyrazolo[1,5-a]pyrazin-4-yl]-3-methoxy-spiro[5,7-dihydrocyclopenta[b]pyridine-6,4'-piperidine]-5-amine]
7.64	N[C@@H]1c2cccnc2CC12CCN(c1ncc(-c3cccc(F)c3F)n3nccc13)CC2 [Compound 26, (5S)-1'-[7-(2,3-difluorophenyl)pyrazolo[1,5-a]pyrazin-4-yl]spiro[5,7-dihydrocyclopenta[b]pyridine-6,4'-piperidine] -5-amine formate]
7.82	Cc1nccc(-c2c(C)nc(N3CCC4(CC3)Cc3ncc(F)cc3[C@H]4N)c3ccnn23)c1Cl [Compound 28, (5S)-1'-[7-(3-chloro-2-methyl-4-pyridyl)-6-methyl-pyrazolo[1,5-a]pyrazin-4-yl]-3-fluoro-spiro[5,7-dihydrocyclopenta[b]pyridine-6,4'-piperidine] -5-amine]
< 6.00	Cc1nn(C)c(C)c1-c1c(C)nc(N2CCC3(CC2)Cc2ncccc2[C@H]3N)c2ccnn12 [Compound 33, (5S)-1'-[6-methyl-7-(1,3,5-trimethylpyrazol-4-yl)pyrazolo[1,5-a]pyrazin-4-yl]spiro[5,7-dihydrocyclopenta[b]pyridine-6,4'-piperidine]-5-amine]
6.64	Cc1nc(N2CCC3(CC2)Cc2ncccc2[C@H]3N)c2cc(C(F)F)nn2c1-c1cnn(C)c1C [Compound 36, (5S)-1'-[2-(difluoromethyl)-7-(1,5-dimethylpyrazol-4-yl)-6-methyl-pyrazolo[1,5-a]pyrazin-4-yl]spiro[5,7-dihydrocyclopenta[b]pyridine-6,4'-piperidine]-5-amine]
7.82	Cc1nc(N2CCC3(CC2)Cc2ncccc2[C@H]3N)c2ccnn2c1-c1ccnc(C(F)(F)F)c1F [Compound 41, (5S)-1'-[7-[3-fluoro-2-(trifluoromethyl)-4-pyridyl]-6-methyl-pyrazolo[1,5-a]pyrazin-4-yl]spiro[5,7-dihydrocyclopenta[b]pyridine-6,4'-piperidine]-5-amine]
8.52	CCc1nccc(-c2c(C)nc(N3CCC4(CC3)Cc3ncccc3[C@H]4N)c3ccnn23)c1Cl [Compound 42, (5S)-1'-[7-(3chloro-2-ethyl-4-pyridyl)-6-methyl-pyrazolo[1,5-a]pyrazin-4-yl]spiro[5,7-dihydrocyclopenta[b]pyridine-6,4'-piperidine]-5-amine]
